Experimental data from ChEMBL document CHEMBL1201862, “PubChem BioAssay data set” (2004).
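Following 48 hours of exposure in 96-well plates, responses at five concentrations were used to interpolate endpoints linearly. Abbreviation: GI50, concentration required for 50% inhibition of growth.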 The source made the active and inactive calls. Rule as the data show it: active = GI50 up to about 1.1 µM and inactive = higher.

What was measured:
Assay in all cases: NCI anticancer screen, dose series, 48 h
PC-3 = test system: PC-3
SF-268 = test system: SF-268
UO-31 = test system: UO-31
UACC-62 = test system: UACC-62
HCC 2998 = test system: HCC 2998
COLO 205 = test system: COLO 205
IGROV-1 = test system: IGROV-1
NCI-H23 = test system: NCI-H23
CCRF-CEM = test system: CCRF-CEM
SNB-75 = test system: SNB-75
U-251 = test system: U-251
RPMI-8226 = test system: RPMI-8226
RXF 393 = test system: RXF 393
SK-MEL-5 = test system: SK-MEL-5
SF-295 = test system: SF-295
EKVX = test system: EKVX
M14 = test system: M14
HL-60 = test system: HL-60
Hs-578T = test system: Hs-578T

| Compound | GI50 (PC-3) | GI50 (SF-268) | GI50 (UO-31) | GI50 (UACC-62) | GI50 (HCC 2998) | GI50 (COLO 205) | GI50 (IGROV-1) | GI50 (NCI-H23) | GI50 (CCRF-CEM) | GI50 (SNB-75) | GI50 (U-251) | GI50 (RPMI-8226) | GI50 (RXF 393) | GI50 (SK-MEL-5) | GI50 (SF-295) | GI50 (EKVX) | GI50 (M14) | GI50 (HL-60) | GI50 (Hs-578T) |
| --- | --- | --- | --- | --- | --- | --- | --- | --- | --- | --- | --- | --- | --- | --- | --- | --- | --- | --- | --- |
| C[C@]12CC[C@@H]3c4ccc(O)cc4CC[C@H]3[C@@H]1C/C(=C\c1ccc(C#N)cc1)C2=O | 18.6 µM (inactive) | 61 µM (inactive) | 46.9 µM (inactive) | 61.1 µM (inactive) | 37.3 µM (inactive) | 37.2 µM (inactive) | 46.1 µM (inactive) | 38.2 µM (inactive) | 34.4 µM (inactive) | 94 µM (inactive) | 24.7 µM (inactive) | 13.3 µM (inactive) | 14.6 µM (inactive) | 19.2 µM (inactive) | 71.6 µM (inactive) | 34.8 µM (inactive) | 41.8 µM (inactive) | – | – |
| CN(C)c1ccc(/N=N/c2ccc3[nH]cnc3c2)cc1 | 33.1 µM (inactive) | 20.6 µM (inactive) | 28.4 µM (inactive) | 24.8 µM (inactive) | – | 19.3 µM (inactive) | 34.5 µM (inactive) | 45.5 µM (inactive) | 19.4 µM (inactive) | 31.6 µM (inactive) | 24.5 µM (inactive) | 19.5 µM (inactive) | 27.1 µM (inactive) | 30.3 µM (inactive) | 24.4 µM (inactive) | 33.5 µM (inactive) | 21.4 µM (inactive) | 14.7 µM (inactive) | 34.7 µM (inactive) |
| SCc1ccc(CS)s1 | > 100 µM (inactive) | > 100 µM (inactive) | > 100 µM (inactive) | > 100 µM (inactive) | > 100 µM (inactive) | > 100 µM (inactive) | > 100 µM (inactive) | > 100 µM (inactive) | > 100 µM (inactive) | 68.5 µM (inactive) | > 100 µM (inactive) | – | – | > 100 µM (inactive) | > 100 µM (inactive) | > 100 µM (inactive) | > 100 µM (inactive) | > 100 µM (inactive) | – |
| Cn1c(N)c(/N=N/c2ccc(S(N)(=O)=O)cc2)c(=O)n(C)c1=O | > 100 µM (inactive) | 88.1 µM (inactive) | > 100 µM (inactive) | 91.8 µM (inactive) | – | > 100 µM (inactive) | > 100 µM (inactive) | > 100 µM (inactive) | > 100 µM (inactive) | 22.6 µM (inactive) | 45.9 µM (inactive) | > 100 µM (inactive) | > 100 µM (inactive) | > 100 µM (inactive) | > 100 µM (inactive) | > 100 µM (inactive) | > 100 µM (inactive) | > 100 µM (inactive) | 22.3 µM (inactive) |
| CCCc1cn2c(/C=N/NC(=N)N)c(-c3cccc([N+](=O)[O-])c3)nc2s1 | 2.59 µM (inactive) | 2.25 µM (inactive) | 1.9 µM (inactive) | 1.61 µM (inactive) | – | 1.88 µM (inactive) | 1.92 µM (inactive) | 1.78 µM (inactive) | 0.746 µM (active) | 1.56 µM (inactive) | 1.86 µM (inactive) | 1.8 µM (inactive) | 1.89 µM (inactive) | 1.98 µM (inactive) | 1.84 µM (inactive) | – | 2.02 µM (inactive) | 2.09 µM (inactive) | 2.68 µM (inactive) |
| O=C(CCc1cc(O)cc(O)c1)NCCCNC(=O)CCc1cc(O)cc(O)c1 | > 100 µM (inactive) | > 100 µM (inactive) | > 100 µM (inactive) | > 100 µM (inactive) | > 100 µM (inactive) | > 100 µM (inactive) | > 100 µM (inactive) | > 100 µM (inactive) | > 100 µM (inactive) | – | > 100 µM (inactive) | > 100 µM (inactive) | > 100 µM (inactive) | > 100 µM (inactive) | > 100 µM (inactive) | > 100 µM (inactive) | > 100 µM (inactive) | – | – |
| CC(C)(C)N1CC2(CCCCC2)C1=O | – | 99.1 µM (inactive) | > 100 µM (inactive) | > 100 µM (inactive) | > 100 µM (inactive) | > 100 µM (inactive) | > 100 µM (inactive) | > 100 µM (inactive) | > 100 µM (inactive) | > 100 µM (inactive) | > 100 µM (inactive) | > 100 µM (inactive) | > 100 µM (inactive) | > 100 µM (inactive) | > 100 µM (inactive) | > 100 µM (inactive) | > 100 µM (inactive) | > 100 µM (inactive) | – |
| O=C(c1ccccc1)N1CCC(CC2(c3cc4ccccc4[nH]3)OCCO2)CC1 | 40.5 µM (inactive) | 51.8 µM (inactive) | 30.6 µM (inactive) | 19 µM (inactive) | – | 21.2 µM (inactive) | 42.2 µM (inactive) | 42.3 µM (inactive) | 29.6 µM (inactive) | 47.1 µM (inactive) | 34.8 µM (inactive) | 2.52 µM (inactive) | 76 µM (inactive) | 19.7 µM (inactive) | 39.4 µM (inactive) | 66.2 µM (inactive) | 18.5 µM (inactive) | – | – |
| CC(C(=O)c1ccccc1)C(c1ccccc1)N1CCOCC1 (stereo not drawn) | > 100 µM (inactive) | > 100 µM (inactive) | – | > 100 µM (inactive) | – | > 100 µM (inactive) | > 100 µM (inactive) | > 100 µM (inactive) | 36.1 µM (inactive) | > 100 µM (inactive) | > 100 µM (inactive) | 54.3 µM (inactive) | > 100 µM (inactive) | > 100 µM (inactive) | > 100 µM (inactive) | > 100 µM (inactive) | > 100 µM (inactive) | 49.1 µM (inactive) | > 100 µM (inactive) |
| COC(=O)c1cc2ccc(O)c(O)c2cn1 | 24.9 µM (inactive) | 17.1 µM (inactive) | 18.3 µM (inactive) | 2.41 µM (inactive) | > 10 µM (inactive) | 18.9 µM (inactive) | 17.5 µM (inactive) | 15.7 µM (inactive) | 1.92 µM (inactive) | 21.5 µM (inactive) | 8.55 µM (inactive) | 17.1 µM (inactive) | 18 µM (inactive) | 14.2 µM (inactive) | 18.2 µM (inactive) | 21.4 µM (inactive) | 18.5 µM (inactive) | 3.36 µM (inactive) | – |
| O=C(Cc1ccccc1)NN1C(=O)/C(=C\c2ccccc2)S/C1=N\c1ccccc1 | – | > 100 µM (inactive) | > 100 µM (inactive) | > 100 µM (inactive) | > 100 µM (inactive) | > 100 µM (inactive) | > 100 µM (inactive) | > 100 µM (inactive) | – | > 100 µM (inactive) | > 100 µM (inactive) | – | > 100 µM (inactive) | > 100 µM (inactive) | > 100 µM (inactive) | > 100 µM (inactive) | > 100 µM (inactive) | – | > 100 µM (inactive) |
| CC(=O)SCCC(NC(=S)Nc1ccccc1)P(=O)(Oc1ccccc1)Oc1ccccc1 (stereo not drawn) | – | > 100 µM (inactive) | > 100 µM (inactive) | > 100 µM (inactive) | > 100 µM (inactive) | > 100 µM (inactive) | > 100 µM (inactive) | > 100 µM (inactive) | > 100 µM (inactive) | > 100 µM (inactive) | > 100 µM (inactive) | – | > 100 µM (inactive) | – | > 100 µM (inactive) | > 100 µM (inactive) | > 100 µM (inactive) | > 100 µM (inactive) | > 100 µM (inactive) |
| CC(=O)C(=[N+]=[N-])C(=O)N(C)CCC#N | > 10 µM (inactive) | > 10 µM (inactive) | > 10 µM (inactive) | 3.58 µM (inactive) | – | – | > 10 µM (inactive) | > 10 µM (inactive) | > 10 µM (inactive) | 0.118 µM (active) | > 10 µM (inactive) | > 10 µM (inactive) | > 10 µM (inactive) | – | > 10 µM (inactive) | > 10 µM (inactive) | > 10 µM (inactive) | > 10 µM (inactive) | – |
| C1CC2CN(CCCN3CCOCC3)C(C1)O2 (stereo not drawn) | > 100 µM (inactive) | > 100 µM (inactive) | > 100 µM (inactive) | > 100 µM (inactive) | – | > 100 µM (inactive) | > 100 µM (inactive) | > 100 µM (inactive) | – | > 100 µM (inactive) | > 100 µM (inactive) | > 100 µM (inactive) | > 100 µM (inactive) | > 100 µM (inactive) | > 100 µM (inactive) | > 100 µM (inactive) | > 100 µM (inactive) | > 100 µM (inactive) | > 100 µM (inactive) |
| N=c1c2c(-c3ccccc3)c[nH]c2ncn1N | > 100 µM (inactive) | – | > 100 µM (inactive) | > 100 µM (inactive) | > 100 µM (inactive) | > 100 µM (inactive) | > 100 µM (inactive) | > 100 µM (inactive) | > 100 µM (inactive) | > 100 µM (inactive) | > 100 µM (inactive) | > 100 µM (inactive) | – | > 100 µM (inactive) | > 100 µM (inactive) | > 100 µM (inactive) | > 100 µM (inactive) | > 100 µM (inactive) | – |
| COc1ccc2nc3cc(Cl)ccc3c(NCCCNCCCNc3c4ccc(Cl)cc4nc4ccc(OC)cc34)c2c1 | 0.0241 µM (active) | 0.0111 µM (active) | < 0.0236 µM (active) | 0.0196 µM (active) | 0.0178 µM (active) | < 0.011 µM (active) | 0.0164 µM (active) | 0.0181 µM (active) | < 0.01 µM (active) | 0.0299 µM (active) | 0.0137 µM (active) | 0.0826 µM (active) | 0.224 µM (active) | 0.0247 µM (active) | < 0.01 µM (active) | 0.137 µM (active) | 0.0266 µM (active) | 0.0278 µM (active) | – |
| CCOC(=O)c1ccc(NCC#CCN2CCOCC2)cc1 | > 100 µM (inactive) | > 100 µM (inactive) | > 100 µM (inactive) | 34.8 µM (inactive) | – | 38 µM (inactive) | > 100 µM (inactive) | > 100 µM (inactive) | 60.1 µM (inactive) | – | > 100 µM (inactive) | > 100 µM (inactive) | > 100 µM (inactive) | 26.9 µM (inactive) | – | 57.9 µM (inactive) | 29.7 µM (inactive) | 48.1 µM (inactive) | > 100 µM (inactive) |
